From ChEMBL document CHEMBL5316298, “Discovery of Amphiphilic Xanthohumol Derivatives as Membrane-Targeting Antimicrobials against Methicillin-Resistant Staphylococcus aureus” (J Med Chem, 2023)
Activity calls are given as the source filed them. No cut-off for these calls is given here.

Experiments:
[1] = Toxicity in KM mouse assessed as effect on hemoglobin level at 20 mg/kg, sc administered into middle dorsum and measured after 24 hrs by routine blood test; format: organism-based; settings: in vivo
[2] = Toxicity in KM mouse assessed as effect on WBC count at 20 mg/kg, sc administered into middle dorsum and measured after 24 hrs by routine blood test; format: organism-based; settings: in vivo
Staphylococcus aureus [3] = assay: Antibacterial activity against methicillin-resistant Staphylococcus aureus 3 infected in KM mouse assessed as reduction in abscesses on dorsal surface of skin at 5 mg/kg administered into skin infection site measured after 24 hrs; format: functional, organism-based
[4] = Toxicity in KM mouse assessed as abnormalities in skin at 5 to 20 mg/kg, sc administered into middle dorsum and measured after 24 hrs; format: organism-based; settings: in vivo, dose 5-20 mg/kg
Staphylococcus aureus [5] = assay: Anti-MRSA activity against methicillin-resistant Staphylococcus aureus 3 incubated for 16 to 18 hrs in presence of 0 to 32 ug/ml phosphatidylglycerol by checkerboard broth dilution method; format: functional; settings: time 16-18 hrs
Cell membrane = assay: Disruption of membrane integrity in methicillin-resistant Staphylococcus aureus 3 assessed as increase in protein leakage at 1 to 8 times MIC incubated for 4 hrs by microspectrophotometer analysis; format: subcellular

With CCCN(CCC)C(=O)C[N+](C)(C)CCCCOc1ccc(/C=C/C(=O)c2c(OC)cc3c(c2O)C=CC(C)(C)O3)cc1.[Br-] the Activity [1] was “Non-Toxic”, the Activity [2] was “Non-Toxic” and the Activity (Staphylococcus aureus [3]) was “inactive”. For the same compound, the Activity [4] was “Non-Toxic”, the MIC (Staphylococcus aureus [5]) was 1 µg/mL and the Activity (Cell membrane) was “Dose-Dependent Effect”.
